Test results as given in the OPERA property sets (Mansouri et al. 2018).

Conditions: not given
With O=C(Nc1ccccc1)OCC1(COC(=O)Nc2ccccc2)CCCC1 the melting point was 152 °C.
Compound CCNc1nc(Cl)nc(NCC)n1 has a log10 Koc (L/kg) of 2.1, a log10 vapour pressure (mmHg) of -7.66 and a melting point of 226 °C. For the same compound, the ready biodegradability was “not readily biodegradable”.
For O=S(=O)(O)c1ccc(Cl)cc1, the melting point was 67 °C and the ready biodegradability was “readily biodegradable”.
In the case of C=CCc1ccc(O)cc1, the boiling point is reported as 238 °C and the melting point is reported as 15.8 °C.
In the case of Cc1cc(C)cc(OP(=O)(Oc2cc(C)cc(C)c2)Oc2cc(C)cc(C)c2)c1, the ready biodegradability is reported as “not readily biodegradable”.
Work on NS(=O)(=O)c1ccc(Cl)c(S(N)(=O)=O)c1 yielded a melting point of 207 °C.
Cc1ccnc(-c2cc(C)ccn2)c1 gave a melting point of 175 °C.
In the case of c1cc2ccc3ccc4ccc5cccc6c(c1)c2c3c4c56, the log10 Henry constant (atm·m³/mol) is reported as -6.48, the log10 Koc (L/kg) is reported as 4.61 and the log10 biodegradation half-life (days) is reported as 2.75. It also gave a log10 vapour pressure (mmHg) of -10 and a melting point of 278 °C.
Work on N#CCC(=O)c1ccc(N)cc1 yielded a melting point of 159 °C.
For C[Si](Cl)(Cl)CCl, the boiling point was 122 °C.
Compound CCCCCCc1ccccc1 has a boiling point of 226 °C, a log10 vapour pressure (mmHg) of -0.919 and a melting point of -61 °C. The ready biodegradability was “readily biodegradable”.
Compound C=CC(=O)OC1CCCCC1C (stereo unspecified) has a boiling point of 210 °C.
CCOC(=O)c1ccc(C)cc1 gave a boiling point of 232 °C and a log10 Koc (L/kg) of 2.59.
Work on Cn1c(=O)c2c(ncn2CC(O)CO)n(C)c1=O (stereo unspecified) yielded a melting point of 162 °C.
O=C(O)/C(F)=C/c1ccccc1 gave a boiling point of 290 °C and a melting point of 158 °C.
In the case of O=[N+]([O-])c1ccc(F)cc1F, the boiling point is reported as 207 °C and the melting point is reported as 9.8 °C.
For CC(C)(C(=O)O)n1nnc2ccccc21, the melting point was 182 °C.
Compound CC(=O)c1ccc(C)cc1O has a boiling point of 245 °C and a melting point of 21 °C.
Cc1cc(N(CCO)CCO)ccc1N=Nc1ccc([N+](=O)[O-])cc1Cl gave a melting point of 192 °C.
CCOc1nc(F)cc2nc(S(=O)(=O)Nc3c(Cl)cccc3C(=O)OC)nn12 showed a melting point of 217 °C.
With CCCC1C(=O)N2C(N(C)C)=Nc3ccc(C)cc3N2C1=O (stereo unspecified) the melting point was 247 °C.
In the case of CN1CC[C@]23C(=O)C[C@H]4C(=CCO[C@H]5CC(=O)N(c6c(O)cccc62)[C@H]3[C@H]54)C1, the melting point is reported as 282 °C.
O=C1c2ccccc2C(=O)N1c1ccccc1 showed a melting point of 210 °C.
Compound Cc1cc(C)c(Br)c(C)c1Br has a boiling point of 285 °C and a melting point of 65.5 °C.
With c1ccc2sc(SNC3CCCCC3)nc2c1 the melting point was 98 °C and the ready biodegradability was “not readily biodegradable”.
For C=C(C)c1ccc(C)c2ccc(C=O)c-2c1, the melting point was 58 °C.
In the case of CCC[Si](C)(C)C, the boiling point is reported as 89 °C.
In the case of Cc1c(Cl)ccc(O)c1Cl, the boiling point is reported as 236 °C and the melting point is reported as 58 °C.
Work on Cc1cc2ccoc2cc1C yielded a boiling point of 221 °C.
COC(=O)/C=C\C(=O)OC showed a boiling point of 198 °C and a log10 vapour pressure (mmHg) of -0.523.
With CCCCc1ccc(C(=O)O)nc1 the melting point was 97 °C.
For C=C(C)C(=O)OCCCCCCCCCCCCCCCCCC, the ready biodegradability was “readily biodegradable”.
For C=CC(=O)NCOCCCC, the ready biodegradability was “readily biodegradable”.
CC(C)(CO)Cc1ccccc1 gave a melting point of 34.5 °C.
For CCC(C)C1(CC)C(=O)NC(=O)NC1=O (stereo unspecified), the melting point was 166 °C.
CC(=O)c1ccc(C#N)cc1 gave a melting point of 57.5 °C.
Work on O=C(O)c1cc(Cl)ccc1[N+](=O)[O-] yielded a melting point of 139 °C.
Compound COC(=O)c1ccoc1 has a boiling point of 160 °C.
In the case of CC(=O)C=CC=Cc1ccccc1, the melting point is reported as 68 °C.
For Nc1cc(S(N)(=O)=O)ccc1S(=O)(=O)CCCO, the melting point was 137 °C.
In the case of CCCCCCCCCCCCCCCCCCOP1OCC2(CO1)COP(OCCCCCCCCCCCCCCCCCC)OC2 (stereo unspecified), the ready biodegradability is reported as “readily biodegradable”.
Work on O=[N+]([O-])c1c(O)ccc2ccccc12 yielded a melting point of 104 °C.
O=C(OCC(=O)N1CCC(O)CC1)c1ccccc1 showed a melting point of 122 °C.
For S=C=NC1CCCCC1, the boiling point was 220 °C.
Compound OCCCCCCCCCCl has a melting point of 28 °C.
COC(=O)c1ccc(O)c(OC)c1 gave a boiling point of 286 °C and a melting point of 64 °C.
CC(C)NCC(O)COc1ccc(COCCOC(C)C)cc1 (stereo unspecified) gave a melting point of 100 °C.
In the case of CC(C)NCC(O)c1ccc([N+](=O)[O-])cc1 (stereo unspecified), the melting point is reported as 98 °C.
Nc1cc(Cl)c(Cl)cc1Cl showed a boiling point of 270 °C and a melting point of 96.5 °C.
With Nc1cc2ccccc2cc1C(=O)O the melting point was 216 °C.
Work on Fc1ccccc1I yielded a boiling point of 189 °C and a melting point of -41.5 °C.
CC(C)C(C(=O)OC(C#N)c1cccc(Oc2ccc(Br)cc2)c1)c1ccc(OC(F)F)cc1 (stereo unspecified) showed a log10 vapour pressure (mmHg) of -8.92.
CCCCCCCCCCCCCCCC=O gave a melting point of 35 °C.
For O=C(O)COc1ccc(C(=O)c2cccs2)c(Cl)c1Cl, the melting point was 149 °C.
CC[N+](=O)[O-] showed a boiling point of 114 °C, a log10 Henry constant (atm·m³/mol) of -4.32 and a log10 Koa of 2.88. The log10 vapour pressure (mmHg) was 1.32 and the melting point was -89.5 °C.
Work on Cc1ccc(N(CCO)CCO)cc1 yielded a boiling point of 339 °C.
In the case of Nc1ccc(N)c2ccccc12, the melting point is reported as 120 °C.
OCC1CCCC1 showed a boiling point of 163 °C.
In the case of CCCc1ssc(=S)c1C, the melting point is reported as 49 °C.
In the case of O=C(O)CCCCCCCCCCCCC(=O)O, the melting point is reported as 127 °C and the ready biodegradability is reported as “readily biodegradable”.
Work on CCCCCC(C)N (stereo unspecified) yielded a boiling point of 142 °C.
In the case of FCCl, the boiling point is reported as -9.1 °C, the log10 vapour pressure (mmHg) is reported as 3.39 and the melting point is reported as -133 °C.
COC(=O)C(C)N(C(=O)c1ccccc1)c1ccc(F)c(Cl)c1 (stereo unspecified) gave a melting point of 85 °C.
N#CC(O)C(Cl)(Cl)Cl (stereo unspecified) gave a melting point of 61 °C.
Work on COC(=O)CCC(=O)O yielded a melting point of 58 °C.
For CCOC(=O)N1CCN(C(=O)OCC)CC1, the boiling point was 315 °C and the melting point was 47 °C.
For NS(=O)(=O)c1ccc(SCCO)c([N+](=O)[O-])c1, the melting point was 151 °C.
Work on CC(=O)Oc1c(I)cc(I)cc1C(=O)Nc1ccc(Cl)cc1 yielded a melting point of 216 °C.
CCCC(=O)OCC(C)C gave a boiling point of 157 °C.
COC(=O)C(F)(F)C(F)(F)C(F)(F)F showed a boiling point of 80 °C and a melting point of -86 °C.
Cc1ccc2c(C)cccc2c1 showed a boiling point of 264 °C, a log10 vapour pressure (mmHg) of -1.84 and a melting point of -16.9 °C.
In the case of CC(C)(C)Cl, the boiling point is reported as 50.5 °C, the melting point is reported as -26 °C and the ready biodegradability is reported as “not readily biodegradable”.
Work on CC(=O)N(CC(C)C(=O)O)c1c(I)cc(I)c(N)c1I (stereo unspecified) yielded a melting point of 224 °C.
With CCc1nc(C)c[nH]1 the boiling point was 294 °C and the melting point was 50.5 °C.
In the case of CC(=O)OCOc1ccccc1C(N)=O, the melting point is reported as 92.5 °C.
In the case of Clc1cc(Cl)c(Cl)c(-c2c(Cl)ccc(Cl)c2Cl)c1, the log10 Henry constant (atm·m³/mol) is reported as -4.25.
With Cc1cccc(N(C)C(=S)Oc2ccc3c(c2)C2CCC3C2)c1 (stereo unspecified) the melting point was 93 °C.
Work on CCC1C=CCC1 (stereo unspecified) yielded a boiling point of 97.8 °C.
In the case of C=C(C)OC(C)=O, the boiling point is reported as 97 °C and the melting point is reported as -92.9 °C.
For CC(C)(C)c1cc(Cc2cc(C(C)(C)C)c(O)c(C(C)(C)C)c2)cc(C(C)(C)C)c1O, the ready biodegradability was “not readily biodegradable”.
In the case of CCc1ccc2c(c1)CCCC2, the boiling point is reported as 244 °C and the melting point is reported as -70 °C.
With O[C@@H]1[C@@H](O)[C@@H]2OC[C@@H](O2)[C@H]1O the log10 vapour pressure (mmHg) was -7.12 and the melting point was 183 °C.
CCCCNC(N)=O gave a melting point of 97 °C.
With CCN(CC)CCNc1ccc(C)c2sc3ccccc3c(=O)c12.Cl the melting point was 196 °C.
Compound CC(Cl)C(Cl)Cl (stereo unspecified) has a boiling point of 132 °C and a log10 vapour pressure (mmHg) of 0.491.
With c1ccc2c(c1)CCNC2 the boiling point was 232 °C.
CCI gave a boiling point of 72.5 °C, a log10 Koa of 2.59 and a log10 vapour pressure (mmHg) of 2.13. It also gave a melting point of -111 °C.
In the case of CC(=O)Nc1ccc(OC(=O)c2ccccc2O)cc1, the melting point is reported as 187 °C.
With O=C(OCC(=O)N1CCCCC1)c1ccccc1 the melting point was 88 °C.
Work on Clc1ccccc1-c1nnc(-c2ccccc2Cl)nn1 yielded a log10 Koc (L/kg) of 4.66, a log10 vapour pressure (mmHg) of -9.01 and a melting point of 182 °C.
CCOC(=O)C(C)OC(=O)c1cc(Oc2ccc(C(F)(F)F)cc2Cl)ccc1[N+](=O)[O-] (stereo unspecified) showed a log10 Koc (L/kg) of 4 and a melting point of 45 °C.
With FC(F)(F)C(F)(F)C(F)(F)C(F)(F)C(F)(F)C(F)(F)C(F)(F)C(F)(F)C(F)(F)C(F)(F)Br the boiling point was 198 °C.
CCCCC(C)C(C)C (stereo unspecified) gave a boiling point of 140 °C and a melting point of -116 °C.
c1ccc2cc(Nc3ccc(Nc4ccc5ccccc5c4)cc3)ccc2c1 gave a melting point of 235 °C.
Cn1c([N+](=O)[O-])cnc1/C=C/c1ccnc(N)n1 showed a melting point of 234 °C.
CCc1cc(CC)cc(CC)c1 gave a boiling point of 216 °C and a melting point of -66.5 °C.
Compound CC(=O)c1cccc(O)c1 has a boiling point of 296 °C and a melting point of 96 °C.
Compound CCOC(=O)CBr has a boiling point of 168 °C.
With CCC=NO the boiling point was 132 °C and the melting point was 40 °C.
With O=C1c2ccccc2N(C(=O)CN2CCOCC2)CN1c1ccccc1 the melting point was 136 °C.
CSc1nc2ccccc2s1 gave a melting point of 44 °C.
In the case of Cc1nc2ccccc2c(=O)n1-c1ccccc1Cl, the melting point is reported as 127 °C.
With CC(C)(C)C(O)C(Oc1ccc(-c2ccccc2)cc1)n1cncn1 (stereo unspecified) the melting point was 127 °C.

Same assay, conditions: fish
CCNc1nc(Cl)nc(NCC)n1 gave a log10 BCF of 0.56 and a log10 biotransformation half-life (days) of -0.94.
For Cc1cc2cc3cc(C)c(C)cc3cc2cc1C, the log10 biotransformation half-life (days) was 0.59.
Nc1cc(Cl)c(Cl)cc1Cl showed a log10 BCF of 2.33 and a log10 biotransformation half-life (days) of -0.01.
With Clc1cc(Cl)c(Cl)c(-c2c(Cl)ccc(Cl)c2Cl)c1 the log10 biotransformation half-life (days) was 2.32.
CCCCC(C)C(C)C (stereo unspecified) gave a log10 biotransformation half-life (days) of 1.28.
